In patent publication US4758560A, “Phenyl-(3-hexamethyleneiminopropyl)-ketone” (priority 1985, dated 1988):
pIC50: −log10 of the molar value. Where two headings read alike, the source gives them in different places.

Assays:
in vivo = details: mouse, iv, LD-50 I.V. mice
femoral artery [1] = assay: Comparative assays: femoral vasodilating action (MVD) in nembutal-anesthetized dogs, I.D. route; assay type: in vivo; parameters: key to MVD (minimum dose inducing a femoral vasodilating action): (g): no vasodilating action per I.D. route; details: for minimal effective dose: Canis lupus familiaris, intraduodenal, read-out: MVD (minimum dose inducing in nembutal-anesthetized dogs a femoral vasodilating action); for therapeutical index (MVD/LD50 ratio): MVD I.D. dogs / LD50 I.V. mice
Description: (e) minimum dose inducing in nembutalanesthetized dogs a femoral
vasodilating action (tested products being administered per I.D. route).

femoral artery [2] = assay: Action on isolated dog vessels: femoral artery; details: n=5
Experimental: (§1) Annuli of femoral arteriae and external saphenous veins of nembutal-anesthetized dogs are cut off and placed into aerated (O2 : 96%; CO2 : 4%, by volume) Krebs-Henseleit, kept at 37° C. and subjected to a 0.5 g stretching. These vessels are constricted either with noradrenaline 10^-5 M in the presence of propanolol 10^-6 M, or with KCl 50 mM in the presence of phentolamine 3×10^-6 M. CRL 41 339 is tested at accumulated doses.

adult human beings = assay: Clinical assays in adult human beings; assay type: in vivo; details: arteritis manifestations and ulcers of arterial or venous origin in lower limbs
Description: In clinical trials, good results were obtained on adult human beings after administration of CRL 41 339 as vasodilating agent, in particular in the treatment of (i) arteritis manifestations in lower limbs, and (ii) ulcers of arterial or venous origin in lower limbs.

mice [3] = system: mice
femoral artery [4] = assay: Comparison of salts: femoral artery flow in nembutal-anesthetized dogs, I.A. route; assay type: in vivo; details: Ex 1 at pH 6, Ex 2 and Ex 3 at pH 4, dose 0: 64, 64, 79, average of 5 assays
Experimental: Three dogs anesthetized with nembutal and having an average weight of 12.9 kg are used as control animals vis-a-vis themselves, and are administered per I.A. route in the femoral artery with phenyl-(3-hexamethyleneiminopropyl)-ketone hydrochloride, fumarate and citrate (Ex 1, Code No.: CRL 41 339; Ex 2, Code No.: CRL 41 339A; and respectively Ex 3, code No.: CRL 41 339B), at equimolar doses.

external saphenous vein = assay: Action on isolated dog vessels: external saphenous vein; details: n=4
Experimental: as §1

mice [5] = assay: Toxicity in mice, intraperitoneal route; assay type: in vivo
noradrenaline = assay: Noradrenaline-induced hypertension after CRL 41 339 in anesthetized dogs; assay type: in vivo; details: for systolic blood pressure with noradrenaline: 2 μg/kg noradrenaline after 19.1 mg/kg I.D. accumulated; for systolic blood pressure before noradrenaline: after 19.1 mg/kg I.D. accumulated
Experimental: (§2) The study of the cardiovascular properties has been performed on nembutal-anesthetized dogs, CRL 41 339 being administered intra-duodenallyin solution in physiological saline (bidistilled water containing 9 g/l of NaCl) at pH 7.5 (the maximum concentration of CRL 41 339 used being of 32.4 mg/ml).
(§3) Three dogs (average weight: 14.3 kg), anesthetized with nembutal, receive CRL 41 339 by intraduodenal administration at successive doses of 0.1 mg/kg, 0.5 mg/kg, 1 mg/kg, 2.5 mg/kg, 5 mg/kg and 10 mg/kg, then two of these dogs receive a supplemental dose of CRL 41 339 (10 mg/kg) by intravenous administration.
(§4) The arterial blood pressure, the heart rate, the blood flow through the femoral artery, the blood flow through the vertebral artery and the rectal and cutaneous temperatures are measured.
It is also observed that the noradrenaline-induced hypertension is reduced by CRL 41 339 (at an accumulated dose of 19.1 mg/kg I.D.):
with 2 μg/kg of noradrenaline the systolic blood pressure increases from 160 mm Hg (i.e. about 2.1×10^4 Pa) to 253 mm Hg (i.e. about 3.3×10^4 Pa) after administration of CRL 41 339 at an accumulated dose of 19.1 mg/kg I.D., while in the control animals, (anesthetized dogs receiving only noradrenaline) the blood systolic pressure increases from 181 mm Hg (i.e. about 2.4×10^4 Pa) to 301 mm Hg (i.e. about 4×10^4 Pa).

isoprenaline = assay: Effects of isoprenaline after CRL 41 339 in anesthetized dogs; assay type: in vivo
Experimental: as §2, §3, §4
with 1 μg/kg of isoprenaline, the diastolic blood pressure changes from 117 mm Hg (i.e. about 1.5×10^4 Pa) to 37 mm Hg (i.e. about 4.9×10^3 Pa) after CRL 41 339, instead of changing from 144 mm Hg (i.e. about 1.9×10^4 Pa) to 36 mm Hg (i.e. about 4.8×10^3 Pa) in the control animals (i.e. anesthetized dogs receiving only isoprenaline), and the heart rate changes from 175 beats/minute to 238 beats/minute after CRL 41 339, while in the control animals said heart rate increases from 188 beats/minute to 253 beats/minute.

[6] = system: rabbit ear microcirculation; assay: Action on rabbit ear microcirculation; assay type: in vivo; details: gastric route, awakened Half Top rabbits
Experimental: […] in an aqueous solution at pH 6.5 (prepared extemporaneously) is administered by gastric route to Half Top rabbit batches (3 males, average weight: […]; and 3 females, average weight 3.3 kg) under a volume of 2 ml/kg. The very same animals used as control animals against themselves receive distilled water per gastric route, under the very same volume. The following parameters are measured: the terminal arteriole diameter, the terminal veinule diameter, the arteriolar pulsatility, the ear cutaneous temperature, the heart rate and the rectal temperature.

Solubility in water = assay type: physicochemical; details: white powder, very soluble in water
[7] = system: perfused hind quarters of rats; assay: Action on perfused hind quarters of rats; assay type: in vivo
[8] = system: nembutal-anesthetized dogs; assay: Cardiovascular study in nembutal-anesthetized dogs, intraduodenal administration (then I.V.); assay type: in vivo; details: for minimal effective dose: Canis lupus familiaris, intraduodenal
Experimental: as §2, §3, §4

[9] = KCl 50 mM with phentolamine 3×10^-6 M
[10] = noradrenaline 10^-5 M with propanolol 10^-6 M
[11] = after accumulated dose of 19.1 mg/kg I.D.
[12] = nembutal-anesthetized, noradrenaline-constricted
[13] = 10 mg/kg I.V., supplemental to I.D. doses

Question: With `COc1cc(OC)c(C(=O)CCCN2CCCC2)c(OC)c1.Cl` [A-1, (2,4,6-trimethoxyphenyl)-(3-pyrrolidinopropyl)-ketone hydrochloride] as the molecule, how does the LD50 (in vivo) read?
Answer: 60 mg/kg

Question: What about the minimal effective dose (femoral artery [1]; dogs, I.D. route) of the same molecule?
Answer: 6 mg/kg

Question: What about the “therapeutical index (MVD/LD50 ratio)” value (femoral artery [1]) of the same molecule?
Answer: 0.100

Question: With `COc1cc(OC)c(C(=O)CCCN2CCCCCC2)c(OC)c1.Cl` [A-2, (2,4,6-trimethoxyphenyl)-(3-hexamethyleneiminopropyl)-ketone hydrochloride] as the molecule, how does the LD50 (in vivo) read?
Answer: 96 mg/kg

Question: What about the minimal effective dose (femoral artery [1]; dogs, I.D. route) of the same molecule?
Answer: 5 mg/kg

Question: What about the “therapeutical index (MVD/LD50 ratio)” value (femoral artery [1]) of the same molecule?
Answer: 0.053

Question: For `COc1cc(OC)c(C(=O)CCCN2CCCCC2)c(OC)c1` [A-3], which “MVD (minimum dose inducing a femoral vasodilating action)” value (femoral artery [1]; dogs, I.D. route) is on record?
Answer: (g)

Question: What does the source list for `Cl.O=C(CCCN1CCCCCC1)c1ccccc1` [Ex 1, phenyl-(3-hexamethyleneiminopropyl)-ketone hydrochloride]?
Answer: pIC50 (femoral artery [2]; Canis lupus familiaris, noradrenaline 10^-5 M with propanolol 10^-6 M, read-out: CI-50 (molar concentration which reduces of 50% the contraction), artery): 5.23; action on femoral artery constriction induced by KCl (femoral artery [2]; [9]): no action; action on artery constricted by noradrenaline (femoral artery [2]; [10]): slakening; clinical trials, as vasodilating agent (adult human beings): good results; mutagenic activity (Salmonella typhimurium): devoid of mutagenic activity; superiority as regards toxicity (mice [3]; mouse, in vivo): superiority; toxicity compared with reference compounds (mice [3]; vs LL 1656 and CRL 41 080): less toxic; Femoral flow (femoral artery [4]; dose 10^-5 M): 166 mL/min; Femoral flow (femoral artery [4]; dose 10^-6 M): 117 mL/min; Femoral flow (femoral artery [4]; dose 10^-7 M): 83 mL/min; pIC50 (external saphenous vein; Canis lupus familiaris, noradrenaline 10^-5 M with propanolol 10^-6 M, read-out: CI-50 (molar concentration which reduces of 50% the contraction), vein): 3.89; action on external saphenous vein constriction induced by KCl (external saphenous vein; [9]): no action; action on vein constricted by noradrenaline (external saphenous vein; [10]): slakening; LD-30 (lethal dose for 30% of the treated animals) (mice [5]): about 128 mg/kg; LD-100 (minimum lethal dose for all the treated animals) (mice [5]): ≤ 256 mg/kg; LD-O (maximum non-lethal dose) (mice [5]): higher than 64 mg/kg; systolic blood pressure with noradrenaline (noradrenaline; controls 301): 253 mm Hg; systolic blood pressure with noradrenaline (noradrenaline; controls about 4×10^4 Pa): about 3.3×10^4 Pa; noradrenaline-induced hypertension (noradrenaline; accumulated dose of 19.1 mg/kg I.D.): reduced; systolic blood pressure before noradrenaline (noradrenaline; controls 181): 160 mm Hg; systolic blood pressure before noradrenaline (noradrenaline; controls about 2.4×10^4 Pa): about 2.1×10^4 Pa; diastolic blood pressure with isoprenaline (isoprenaline; 1 μg/kg isoprenaline after CRL 41 339 (19.1 mg/kg I.D. accumulated), controls 36): 37 mm Hg; heart rate with isoprenaline (isoprenaline; 1 μg/kg isoprenaline after CRL 41 339 (19.1 mg/kg I.D. accumulated), controls 253): 238 beats/minute; diastolic blood pressure with isoprenaline (isoprenaline; 1 μg/kg isoprenaline after CRL 41 339 (19.1 mg/kg I.D. accumulated), controls about 4.8×10^3 Pa): about 4.9×10^3 Pa; diastolic blood pressure before isoprenaline (isoprenaline; after CRL 41 339 (19.1 mg/kg I.D. accumulated), controls 144): 117 mm Hg; heart rate before isoprenaline (isoprenaline; after CRL 41 339 (19.1 mg/kg I.D. accumulated), controls 188): 175 beats/minute; diastolic blood pressure before isoprenaline (isoprenaline; after CRL 41 339 (19.1 mg/kg I.D. accumulated), controls about 1.9×10^4 Pa): about 1.5×10^4 Pa; effects of isoprenaline as regards the diastolic blood pressure (isoprenaline; [11]): not modified; effects of isoprenaline as regards the heart rate (isoprenaline; [11]): slightly reduced; arteriolar pulsatility [6]: stronghly increases; arteriolar pulsatility/heart rate ratio [6]: stronghly increases; duration of terminal arteriole dilation [6]: 0.5 h; ear cutaneous temperature [6]: important and lasting increase; heart rate [6]: without modifying the heart rate; terminal arteriole diameter [6]: moderately dilates; veinular diameter [6]: no action; LD50 (in vivo): 128 mg/kg; solubility (Solubility in water): 100 mg/mL; anti-noradrenaline activity ([7]; believed to be involved in the vasodilating activity): important anti-noradrenaline activity; duration of vasodilating effect [7, 12]: increases with the dose; vasodilating effect on hind quarters of rats [7, 12]: important vasodilating effect; blood pressure effect of supplemental I.V. dose [8, 13]: hypotension; heart rate effect of supplemental I.V. dose [8, 13]: bradycardia; minimal effective dose ([8]; I.D., accumulated dose, read-out: accumulated dose as from which femoral artery flow is highly increased): 4.1 mg/kg; minimal effective dose ([8]; I.D., single successive dose, read-out: dose as from which femoral artery flow is highly increased): 2.5 mg/kg; blood arterial pressure ([8]; I.D. route): does not modify; heart beat ([8]; I.D. route): does not modify; respiration rate ([8]; I.D. route): reduces the respiration rate; femoral artery flow ([8]; I.D., as from the dose of 2.5 mg/kg (accumulated 4.1 mg/kg)): highly increases; vasodilating activity compared with reference compounds (femoral artery [1]; I.D. route, vs LL 1656 and CRL 41 080): more active as a vasodilating substance per introduodenal route; therapeutical index (MVD/LD50 ratio) (femoral artery [1]): 0.032; superiority as regards peripheral vasodilating activity (femoral artery [1]; vs A-1, A-2, A-3): superiority

Question: What does the source list for `O=C(CCCN1CCCCCC1)c1ccccc1.O=C(O)/C=C/C(=O)O` [Ex 2, phenyl(3-hexamethyleneiminopropyl)-ketone fumarate]?
Answer: Femoral flow (femoral artery [4]; dose 10^-5 M): 168 mL/min; Femoral flow (femoral artery [4]; dose 10^-6 M): 117 mL/min; Femoral flow (femoral artery [4]; dose 10^-7 M): 76 mL/min

Question: For `O=C(CCCN1CCCCCC1)c1ccccc1.O=C(O)CC(O)(CC(=O)O)C(=O)O` [Ex 3, phenyl(3-hexamethyleneiminopropyl)-ketone citrate], which Femoral flow (femoral artery [4]; dose 10^-5 M) is on record?
Answer: 197 mL/min

Question: And the Femoral flow (femoral artery [4]; dose 10^-6 M)?
Answer: 127 mL/min

Question: And the Femoral flow (femoral artery [4]; dose 10^-7 M)?
Answer: 90 mL/min
